Legend:
[1] = biological target: Serine/threonine-protein kinase 3 (Homo sapiens) (UniProt Q13188); conditions: Compound concentration 1000.0 nM
[2] = biological target: Ribosomal protein S6 kinase alpha-5 (Homo sapiens) (UniProt O75582); conditions: Compound concentration 1000.0 nM
[3] = test system: Phosphatidylinositol 4,5-bisphosphate 3-kinase catalytic subunit alpha isoform (Homo sapiens), P42336 [E542K]; conditions: Compound concentration 1000.0 nM
[4] = biological target: Fibroblast growth factor receptor 2 (Homo sapiens) (UniProt P21802); conditions: Compound concentration 1000.0 nM
[5] = biological target: Calcium/calmodulin-dependent protein kinase type 1 (Homo sapiens) (UniProt Q14012); conditions: Compound concentration 1000.0 nM
[6] = test system: Mast/stem cell growth factor receptor Kit (Homo sapiens), P10721 [D816V]; conditions: Compound concentration 1000.0 nM
[7] = biological target: Glycogen synthase kinase-3 alpha (Homo sapiens) (UniProt P49840); conditions: Compound concentration 1000.0 nM
[8] = biological target: Dual specificity tyrosine-phosphorylation-regulated kinase 1A (Homo sapiens) (UniProt Q13627); conditions: Compound concentration 1000.0 nM
[9] = biological target: Serine/threonine-protein kinase SIK3 (Homo sapiens) (UniProt Q9Y2K2); conditions: Compound concentration 1000.0 nM
[10] = biological target: Mitogen-activated protein kinase 6 (Homo sapiens) (UniProt Q16659); conditions: Compound concentration 1000.0 nM
[11] = biological target: D(4) dopamine receptor (Homo sapiens) (UniProt P21917); conditions: Compound concentration 10.0 uM
[12] = biological target: Protein-tyrosine kinase 6 (Homo sapiens) (UniProt Q13882); conditions: Compound concentration 1000.0 nM
[13] = biological target: Death-associated protein kinase 2 (Homo sapiens) (UniProt Q9UIK4); conditions: Compound concentration 1000.0 nM
[14] = biological target: Serine/threonine-protein kinase PRP4 homolog (Homo sapiens) (UniProt Q13523); conditions: Compound concentration 1000.0 nM
[15] = biological target: Serine/threonine-protein kinase OSR1 (Homo sapiens) (UniProt O95747); conditions: Compound concentration 1000.0 nM
[16] = test system: Receptor-type tyrosine-protein kinase FLT3 (Homo sapiens), P36888 [UNDEFINED MUTATION]; conditions: Compound concentration 1000.0 nM
[17] = biological target: AP2-associated protein kinase 1 (Homo sapiens) (UniProt Q2M2I8); conditions: Compound concentration 1000.0 nM
[18] = biological target: Rhodopsin kinase GRK7 (Homo sapiens) (UniProt Q8WTQ7); conditions: Compound concentration 1000.0 nM
[19] = biological target: Activin receptor type-2B (Homo sapiens) (UniProt Q13705); conditions: Compound concentration 1000.0 nM
[20] = biological target: Mitogen-activated protein kinase kinase kinase 9 (Homo sapiens) (UniProt P80192); conditions: Compound concentration 1000.0 nM
[21] = biological target: NUAK family SNF1-like kinase 2 (Homo sapiens) (UniProt Q9H093); conditions: Compound concentration 1000.0 nM
[22] = biological target: Serine/threonine-protein kinase 33 (Homo sapiens) (UniProt Q9BYT3); conditions: Compound concentration 1000.0 nM
[23] = biological target: Non-receptor tyrosine-protein kinase TYK2 (Homo sapiens) (UniProt P29597); conditions: Compound concentration 1000.0 nM
[24] = biological target: Transient receptor potential cation channel subfamily M member 6 (Homo sapiens) (UniProt Q9BX84); conditions: Compound concentration 1000.0 nM
[25] = biological target: Ribosomal protein S6 kinase alpha-1 (Homo sapiens) (UniProt Q15418); conditions: Compound concentration 1000.0 nM
[26] = biological target: Homeodomain-interacting protein kinase 1 (Homo sapiens) (UniProt Q86Z02); conditions: Compound concentration 1000.0 nM
[27] = biological target: Wee1-like protein kinase (Homo sapiens) (UniProt P30291); conditions: Compound concentration 1000.0 nM
[28] = biological target: Muscle, skeletal receptor tyrosine-protein kinase (Homo sapiens) (UniProt O15146); conditions: Compound concentration 1000.0 nM
[29] = test system: ALK tyrosine kinase receptor (Homo sapiens), Q9UM73 [L1196M]; conditions: Compound concentration 1000.0 nM
[30] = biological target: Myosin light chain kinase family member 4 (Homo sapiens) (UniProt Q86YV6); conditions: Compound concentration 1000.0 nM
[31] = biological target: Vascular endothelial growth factor receptor 1 (Homo sapiens) (UniProt P17948); conditions: Compound concentration 1000.0 nM
[32] = biological target: Glycogen synthase kinase-3 beta (Homo sapiens) (UniProt P49841); conditions: Compound concentration 1000.0 nM
[33] = biological target: Cyclin-dependent kinase-like 2 (Homo sapiens) (UniProt Q92772); conditions: Compound concentration 1000.0 nM
[34] = biological target: Dual specificity testis-specific protein kinase 1 (Homo sapiens) (UniProt Q15569); conditions: Compound concentration 1000.0 nM
[35] = biological target: Beta-adrenergic receptor kinase 1 (Homo sapiens) (UniProt P25098); conditions: Compound concentration 1000.0 nM
[36] = test system: Epidermal growth factor receptor (Homo sapiens), P00533 [G719S]; conditions: Compound concentration 1000.0 nM
[37] = biological target: Activin receptor type-1-like (Homo sapiens) (UniProt P37023); conditions: Compound concentration 1000.0 nM
[38] = biological target: Ribosomal protein S6 kinase beta-1 (Homo sapiens) (UniProt P23443); conditions: Compound concentration 1000.0 nM
[39] = biological target: Bone morphogenetic protein receptor type-1A (Homo sapiens) (UniProt P36894); conditions: Compound concentration 1000.0 nM
[40] = biological target: Serine/threonine-protein kinase tousled-like 2 (Homo sapiens) (UniProt Q86UE8); conditions: Compound concentration 1000.0 nM
[41] = biological target: cGMP-dependent protein kinase 1 (Homo sapiens) (UniProt Q13976); conditions: Compound concentration 1000.0 nM
[42] = biological target: Fibroblast growth factor receptor 1 (Homo sapiens) (UniProt P11362); conditions: Compound concentration 1000.0 nM
[43] = biological target: Citron Rho-interacting kinase (Homo sapiens) (UniProt O14578); conditions: Compound concentration 1000.0 nM
[44] = biological target: Dual specificity tyrosine-phosphorylation-regulated kinase 2 (Homo sapiens) (UniProt Q92630); conditions: Compound concentration 1000.0 nM
[45] = biological target: Insulin receptor (Homo sapiens) (UniProt P06213); conditions: Compound concentration 1000.0 nM

Mast/stem cell growth factor receptor Kit (Homo sapiens), P10721 [D816V], sequence (P10721 whole entry D816V): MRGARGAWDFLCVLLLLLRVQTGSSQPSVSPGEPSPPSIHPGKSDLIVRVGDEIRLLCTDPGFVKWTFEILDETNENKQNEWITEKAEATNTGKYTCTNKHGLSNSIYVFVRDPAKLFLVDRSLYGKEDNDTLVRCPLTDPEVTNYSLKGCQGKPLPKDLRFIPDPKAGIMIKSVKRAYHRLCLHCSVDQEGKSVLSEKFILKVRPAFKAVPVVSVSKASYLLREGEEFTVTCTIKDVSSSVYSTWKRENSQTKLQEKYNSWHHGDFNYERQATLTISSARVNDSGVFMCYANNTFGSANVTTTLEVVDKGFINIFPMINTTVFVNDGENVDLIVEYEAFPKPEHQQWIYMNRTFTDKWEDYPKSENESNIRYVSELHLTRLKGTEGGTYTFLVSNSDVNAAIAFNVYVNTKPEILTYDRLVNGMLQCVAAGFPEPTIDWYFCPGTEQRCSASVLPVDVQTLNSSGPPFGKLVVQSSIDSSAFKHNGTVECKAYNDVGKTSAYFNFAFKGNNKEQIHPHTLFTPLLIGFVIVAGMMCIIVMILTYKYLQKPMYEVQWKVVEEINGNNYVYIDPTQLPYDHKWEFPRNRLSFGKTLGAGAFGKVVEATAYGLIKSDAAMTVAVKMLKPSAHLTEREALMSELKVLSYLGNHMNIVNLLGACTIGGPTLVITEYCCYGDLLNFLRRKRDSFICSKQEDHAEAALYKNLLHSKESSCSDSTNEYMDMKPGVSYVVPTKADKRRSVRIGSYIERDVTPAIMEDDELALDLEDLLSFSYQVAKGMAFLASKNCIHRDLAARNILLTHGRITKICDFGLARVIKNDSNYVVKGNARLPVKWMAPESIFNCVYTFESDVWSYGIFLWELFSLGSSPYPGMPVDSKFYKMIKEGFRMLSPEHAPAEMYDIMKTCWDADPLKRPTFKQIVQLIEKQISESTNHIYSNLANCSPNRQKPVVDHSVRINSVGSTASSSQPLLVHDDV
Vascular endothelial growth factor receptor 1 (Homo sapiens), sequence (P17948 whole entry): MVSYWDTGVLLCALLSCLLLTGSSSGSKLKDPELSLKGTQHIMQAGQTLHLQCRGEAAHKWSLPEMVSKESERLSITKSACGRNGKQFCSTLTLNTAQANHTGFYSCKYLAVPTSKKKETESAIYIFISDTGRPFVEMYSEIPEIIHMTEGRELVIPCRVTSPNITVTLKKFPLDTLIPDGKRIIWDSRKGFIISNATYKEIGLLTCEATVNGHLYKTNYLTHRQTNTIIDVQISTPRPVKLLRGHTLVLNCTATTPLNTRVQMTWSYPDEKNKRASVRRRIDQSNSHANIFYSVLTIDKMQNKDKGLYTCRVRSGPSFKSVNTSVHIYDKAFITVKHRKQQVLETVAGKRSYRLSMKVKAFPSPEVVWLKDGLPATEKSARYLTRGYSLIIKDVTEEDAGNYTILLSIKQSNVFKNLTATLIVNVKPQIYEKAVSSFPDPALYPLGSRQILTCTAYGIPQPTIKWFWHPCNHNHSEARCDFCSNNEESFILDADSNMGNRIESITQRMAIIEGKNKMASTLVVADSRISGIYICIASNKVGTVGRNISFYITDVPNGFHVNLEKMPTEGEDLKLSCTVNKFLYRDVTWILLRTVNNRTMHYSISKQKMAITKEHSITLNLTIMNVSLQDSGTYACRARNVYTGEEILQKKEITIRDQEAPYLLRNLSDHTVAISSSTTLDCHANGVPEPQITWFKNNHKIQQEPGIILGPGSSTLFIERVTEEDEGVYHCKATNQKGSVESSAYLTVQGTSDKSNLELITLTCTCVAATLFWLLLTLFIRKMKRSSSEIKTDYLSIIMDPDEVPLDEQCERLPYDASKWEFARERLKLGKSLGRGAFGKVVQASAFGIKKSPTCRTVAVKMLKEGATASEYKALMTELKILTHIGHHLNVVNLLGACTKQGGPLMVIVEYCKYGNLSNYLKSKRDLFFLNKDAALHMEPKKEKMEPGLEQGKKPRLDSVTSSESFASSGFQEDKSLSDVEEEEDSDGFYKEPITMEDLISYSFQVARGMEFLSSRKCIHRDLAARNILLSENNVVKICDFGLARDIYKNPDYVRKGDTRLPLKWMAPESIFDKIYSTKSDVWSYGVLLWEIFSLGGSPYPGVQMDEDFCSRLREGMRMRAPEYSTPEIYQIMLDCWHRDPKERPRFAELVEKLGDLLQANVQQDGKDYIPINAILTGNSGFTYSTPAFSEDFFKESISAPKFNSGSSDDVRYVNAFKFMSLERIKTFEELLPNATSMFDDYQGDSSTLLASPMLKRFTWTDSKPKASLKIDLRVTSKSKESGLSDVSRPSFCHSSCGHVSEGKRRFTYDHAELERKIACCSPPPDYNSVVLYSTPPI
Mitogen-activated protein kinase 6 (Homo sapiens), sequence (Q16659 whole entry): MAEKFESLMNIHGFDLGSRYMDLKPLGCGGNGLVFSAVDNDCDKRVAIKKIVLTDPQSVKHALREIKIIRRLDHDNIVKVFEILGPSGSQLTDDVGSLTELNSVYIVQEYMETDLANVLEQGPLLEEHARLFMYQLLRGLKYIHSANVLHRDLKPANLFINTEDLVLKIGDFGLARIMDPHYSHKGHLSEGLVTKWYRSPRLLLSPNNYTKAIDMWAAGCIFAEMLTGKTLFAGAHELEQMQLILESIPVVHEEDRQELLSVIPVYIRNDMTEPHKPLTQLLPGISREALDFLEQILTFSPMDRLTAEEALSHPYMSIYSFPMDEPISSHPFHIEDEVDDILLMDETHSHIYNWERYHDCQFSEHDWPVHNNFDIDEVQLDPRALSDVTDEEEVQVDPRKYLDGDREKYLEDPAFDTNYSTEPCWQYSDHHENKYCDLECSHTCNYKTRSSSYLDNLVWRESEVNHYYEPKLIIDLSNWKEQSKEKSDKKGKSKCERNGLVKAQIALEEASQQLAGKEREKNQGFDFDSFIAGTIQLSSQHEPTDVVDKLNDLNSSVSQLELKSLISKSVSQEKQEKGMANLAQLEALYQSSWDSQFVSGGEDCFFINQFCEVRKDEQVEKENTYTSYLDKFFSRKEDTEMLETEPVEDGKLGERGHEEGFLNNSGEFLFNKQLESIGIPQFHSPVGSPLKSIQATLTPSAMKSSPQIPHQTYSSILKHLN
Serine/threonine-protein kinase tousled-like 2 (Homo sapiens), sequence (Q86UE8 whole entry, looked up): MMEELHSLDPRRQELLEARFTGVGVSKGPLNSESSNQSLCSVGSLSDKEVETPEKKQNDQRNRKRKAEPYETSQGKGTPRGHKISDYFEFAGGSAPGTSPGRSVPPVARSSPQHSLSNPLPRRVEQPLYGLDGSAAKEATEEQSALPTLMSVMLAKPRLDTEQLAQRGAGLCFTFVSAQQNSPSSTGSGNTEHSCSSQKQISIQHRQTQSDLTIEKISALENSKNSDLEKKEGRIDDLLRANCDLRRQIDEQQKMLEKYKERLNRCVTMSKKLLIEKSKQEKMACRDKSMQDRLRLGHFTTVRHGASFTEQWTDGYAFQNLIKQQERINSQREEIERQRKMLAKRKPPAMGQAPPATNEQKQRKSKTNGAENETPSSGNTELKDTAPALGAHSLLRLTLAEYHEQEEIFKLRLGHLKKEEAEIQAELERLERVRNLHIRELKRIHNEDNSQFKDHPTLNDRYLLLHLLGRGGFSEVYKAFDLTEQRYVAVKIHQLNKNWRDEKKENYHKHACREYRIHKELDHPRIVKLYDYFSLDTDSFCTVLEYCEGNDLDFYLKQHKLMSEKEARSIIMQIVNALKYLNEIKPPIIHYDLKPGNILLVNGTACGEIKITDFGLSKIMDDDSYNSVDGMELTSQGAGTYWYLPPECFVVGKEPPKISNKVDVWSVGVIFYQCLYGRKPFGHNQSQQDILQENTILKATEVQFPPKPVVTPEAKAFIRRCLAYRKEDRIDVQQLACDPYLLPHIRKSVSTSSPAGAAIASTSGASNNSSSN
Wee1-like protein kinase (Homo sapiens), sequence (P30291 whole entry, looked up): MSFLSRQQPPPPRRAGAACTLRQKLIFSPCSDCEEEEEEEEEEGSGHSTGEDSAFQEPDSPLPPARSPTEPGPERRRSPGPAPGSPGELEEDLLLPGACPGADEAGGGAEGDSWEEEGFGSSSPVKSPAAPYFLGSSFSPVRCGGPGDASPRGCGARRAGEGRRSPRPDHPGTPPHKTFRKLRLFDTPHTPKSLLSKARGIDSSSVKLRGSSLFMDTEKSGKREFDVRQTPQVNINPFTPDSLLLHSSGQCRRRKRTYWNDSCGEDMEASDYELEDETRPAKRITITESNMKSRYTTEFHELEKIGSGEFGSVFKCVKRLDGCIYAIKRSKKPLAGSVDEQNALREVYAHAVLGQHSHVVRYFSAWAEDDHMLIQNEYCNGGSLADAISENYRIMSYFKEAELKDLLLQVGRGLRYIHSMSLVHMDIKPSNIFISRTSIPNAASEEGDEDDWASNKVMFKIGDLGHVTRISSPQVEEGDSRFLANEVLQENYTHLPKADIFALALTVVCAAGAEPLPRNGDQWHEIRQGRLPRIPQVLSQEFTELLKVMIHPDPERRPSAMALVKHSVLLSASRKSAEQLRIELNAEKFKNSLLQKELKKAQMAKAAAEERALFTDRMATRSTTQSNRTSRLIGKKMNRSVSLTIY
Ribosomal protein S6 kinase beta-1 (Homo sapiens), sequence (P23443 whole entry, looked up): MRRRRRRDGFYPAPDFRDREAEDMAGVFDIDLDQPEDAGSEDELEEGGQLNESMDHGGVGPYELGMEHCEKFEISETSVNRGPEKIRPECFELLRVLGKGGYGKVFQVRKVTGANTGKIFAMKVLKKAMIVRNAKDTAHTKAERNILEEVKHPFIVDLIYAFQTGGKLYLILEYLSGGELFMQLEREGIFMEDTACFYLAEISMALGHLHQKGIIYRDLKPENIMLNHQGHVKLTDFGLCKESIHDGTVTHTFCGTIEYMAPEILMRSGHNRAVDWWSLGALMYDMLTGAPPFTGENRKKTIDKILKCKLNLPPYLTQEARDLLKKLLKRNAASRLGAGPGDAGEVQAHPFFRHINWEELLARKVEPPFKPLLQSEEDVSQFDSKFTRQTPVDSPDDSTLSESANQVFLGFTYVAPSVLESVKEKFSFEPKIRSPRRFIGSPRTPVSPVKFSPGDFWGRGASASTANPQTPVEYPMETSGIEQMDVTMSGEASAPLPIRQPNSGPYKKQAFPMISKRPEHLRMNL

CN([C@@H]1CCc2c(CC(=O)O)c3cc(S(C)(=O)=O)ccc3n2C1)S(=O)(=O)c1ccc(F)cc1
inactive: residual activity [1] 98% | residual activity [2] 71% | residual activity [3] 88% | residual activity [4] 89% | residual activity [5] 80% | residual activity [6] 95% | residual activity [7] 100% | residual activity [8] 81% | residual activity [9] 89% | residual activity [10] 100% | inhibition [11] 2.8% | residual activity [12] 92% | residual activity [13] 100% | residual activity [14] 100% | residual activity [15] 100% | residual activity [16] 98% | residual activity [17] 100% | residual activity [18] 97% | residual activity [19] 100% | residual activity [20] 91% | residual activity [21] 87% | residual activity [22] 99% | residual activity [23] 100% | residual activity [24] 74% | residual activity [25] 100% | residual activity [26] 77% | residual activity [27] 100% | residual activity [28] 100% | residual activity [29] 89% | residual activity [30] 100% | residual activity [31] 88% | residual activity [32] 85% | residual activity [33] 100% | residual activity [34] 73% | residual activity [35] 84% | residual activity [36] 100% | residual activity [37] 100% | residual activity [38] 100% | residual activity [39] 85% | residual activity [40] 100% | residual activity [41] 95% | residual activity [42] 100% | residual activity [43] 96% | residual activity [44] 94% | residual activity [45] 100%

CN([C@@H]1CCc2c(CC(=O)O)c3ccccc3n2C1)S(=O)(=O)c1ccc(F)cc1 [MK-7246]
inactive: residual activity [1] 100% | residual activity [2] 79% | residual activity [3] 86% | residual activity [4] 80% | residual activity [5] 100% | residual activity [6] 100% | residual activity [7] 90% | residual activity [8] 69% | residual activity [9] 98% | residual activity [10] 100% | inhibition [11] 3.14% | residual activity [12] 100% | residual activity [13] 100% | residual activity [14] 99% | residual activity [15] 100% | residual activity [16] 96% | residual activity [17] 100% | residual activity [18] 93% | residual activity [19] 98% | residual activity [20] 100% | residual activity [21] 100% | residual activity [22] 100% | residual activity [23] 100% | residual activity [24] 85% | residual activity [25] 100% | residual activity [26] 100% | residual activity [27] 100% | residual activity [28] 97% | residual activity [29] 74% | residual activity [30] 100% | residual activity [31] 100% | residual activity [32] 93% | residual activity [33] 100% | residual activity [34] 91% | residual activity [35] 86% | residual activity [36] 100% | residual activity [37] 88% | residual activity [38] 100% | residual activity [39] 100% | residual activity [40] 100% | residual activity [41] 100% | residual activity [42] 100% | residual activity [43] 100% | residual activity [44] 95% | residual activity [45] 100%
